Experimental data published in US6642216B2, “Isoprenoid pathway inhibitors for stimulating bone growth” (ZymoGenetics Corporation, priority 1996, dated 2003).
Where “and” joins values, the source holds several entries; their conditions need not be identical. Equal entries are not always repeated.

Tests used:
rabbits = details: Wang et al. 1995; cited from earlier work
[1] = test system: serum response element (SRE)-luciferase reporter gene / CRE-luciferase reporter gene; assay: negative control OBSRE (SRE-luciferase) and/or glucagon (CRE-luciferase) assays; assay type: cell-based, murine
Excerpt: In the negative control OBSRE assay, a murine osteoblast cell line, such as CCC-4 expressing a serum response element (SRE)-luciferase reporter gene is used (see WO96/07733). In the negative control glucagon assay, a glucagon receptor-positive BHK cell expressing a CRE-luciferase reporter gene is used (see U.S. Pat. No. 5,698,672).

[2] = test system: osteoprogenitor cells cloned from bone marrow stroma; details: Cui et al. 1996; cited from earlier work
chickens = details: Cui et al. 1996; cited from earlier work
[3] = test system: ovariectomized Sprague-Dawley rats; assay: Acute OVX (prevention model) oral dosing; assay type: in vivo, rat
Method: Lead compounds can also be tested in acute ovariectomized animals (prevention model) using an in vivo dosing assay. Such assays may also include an estrogen-treated group as a control. An exemplary subcutaneous dosing assay is performed as follows:
In a typical study, 80 three-month-old female Sprague-Dawley rats are weight-matched and divided into eight groups, with ten animals in each group. This includes a baseline control group of animals sacrificed at the initiation of the study; three control groups (sham ovariectomized (sham OVX)+vehicle only; ovariectomized (OVX)+vehicle only; PBS-treated OVX); and a control OVX group that is administered a compound known to promote bone growth. Three dosage levels of the compound to be tested are administered to the remaining three groups of OVX animals.
Since ovariectomy (OVX) induces hyperphagia, all OVX animals are pair-fed with sham OVX animals throughout the 35 day study. Briefly, test compound, positive control compound, PBS, or vehicle alone is administered orally or subcutaneously once per day for 35 days. Alternatively, test compound can be formulated in implantable pellets that are implanted for 35 days, or may be administered orally, such as by gastric gavage. All animals, including sham OVX/vehicle and OVX/vehicle groups, are injected intraperitoneally with calcein nine days and two days before sacrifice (two injections of calcein administered each designated day, to ensure proper labeling of newly formed bone). Weekly body weights are determined. At the end of the 35-day cycle, the animals' blood and tissues are processed as described above.
(§1) Lovastatin and simvastatin were analyzed in vivo using an acute OVX (prevention model) and/or chronic (treatment model) OVX model system, as described above under “Additional In Vivo Assays”.
Lovastatin was examined in an acute OVX study. Briefly, 59-0326 was orally administered (35, 7, or 1.4 mg/kg/day; once per day for 35 days) immediately following ovariectomy. At the end of the study, the animals' blood and tissues samples were processed, and the following data were obtained.
Similarly, lovastatin was orally administered (0.1, 1, 5, 10, 20 or 40 mg/kg/day; once per day for 35 days) immediately following ovariectomy. Two individuals histomorphometrically analyzed samples removed from animals that received the 10 mg/kg/day dose. These analyses indicated an increase in trabecular bone volume of 38% (not significant) or 90% (p<0.02) in the proximal tibia. The bone formation rate in the proximal tibia was determined to have increased 74% (p=0.004) in animals that received a 10 mg/kg/day dose or 37% (p<0.008) in animals that received a 1 mg/kg/day dose. In samples from animals that received the 1 mg/kg/day dose, mineral apposition rate in the proximal tibia was increased 22%.

ovariectomized rats = assay: Chronic OVX (treatment model) oral dosing; assay type: in vivo, rat; details: once per day for 10 weeks, from 6 weeks post-ovariectomy, not significant
Method: Lead compounds may also be tested in chronic OVX animals (treatment model). An exemplary protocol for treatment of established bone loss in ovariectomized animals that can be used to assess efficacy of anabolic agents may be performed as follows. Briefly, 80 to 100 six month old female, Sprague-Dawley rats are subjected to sham surgery (sham OVX) or ovariectomy (OVX) at time 0, and 10 rats are sacrificed to serve as baseline controls. Body weights are recorded weekly during the experiment. After approximately 6 weeks (42 days) or more of bone depletion, 10 sham OVX and 10 OVX rats are randomly selected for sacrifice as depletion period controls. Of the remaining animals, 10 sham OVX and 10 OVX rats are used as placebo-treated controls. The remaining OVX animals are treated with 3 to 5 doses of test drug for a period of 5 weeks (35 days). As a positive control, a group of OVX rats can be treated with an agent such as PTH, a known anabolic agent in this model (Kimmel, et al., Endocrinology (1993) 132:1577-84). […]
as §1
Simvastatin was also examined in a chronic OVX study. […] At the 50 mg/kg/day dose, an 86% (not significant) increase in the bone formation rate in the proximal tibia was measured.

[4] = 7 mg/kg/day oral, once per day for 35 days

In the case of `CC[C@H](C)C(=O)O[C@H]1C[C@@H](C)C=C2C=C[C@H](C)[C@H](CC[C@@H]3C[C@@H](O)CC(=O)O3)[C@H]21` [Lovastatin, lovastatin], the “effect on bone formation in the absence of steroid treatment” value (rabbits) is listed as “no effect on bone formation”, the “inhibition of the bone resorption resulting from steroid administration” value (rabbits) is listed as “able to inhibit the bone resorption” and the “dose-dependent stimulatory effect in control assays” value [1] is listed as “not in control assays”. For the same molecule, the “triglyceride vesicles accumulated on dexamethasone treatment” value [2] was “diminished triglyceride vesicles”, the “bone loss in the femoral head as a result of dexamethasone treatment” value (chickens) was “improved” and the “increase in trabecular bone volume in the proximal tibia” value ([3]; 7 mg/kg/day oral, 35 days, histomorphometric analysis by two individuals (p<0.001; p=0.0503)) was 110% and 25%. The “increase in trabecular bone volume in the distal femur” value ([3]; 7 mg/kg/day oral, 35 days, not significant) was 23%, the “increase in bone formation rate in the distal femur” value ([3]; 7 mg/kg/day oral, 35 days, p=0.052) was 40% and the “increase in cortical thickness (pQCT)” value [3, 4] was 14%. The “increase in trabecular density (pQCT)” value [3, 4] was 20%, the “increase in mineral apposition rate in the proximal tibia” value ([3]; second study, 1 mg/kg/day oral, 35 days) was 22% and the “increase in bone formation rate in the proximal tibia” value ([3]; second study, 1 mg/kg/day oral, 35 days, p<0.008) was 37%. The “increase in bone formation rate in the proximal tibia” value ([3]; second study, 10 mg/kg/day oral, 35 days, p=0.004) was 74% and the “increase in trabecular bone volume in the proximal tibia” value ([3]; second study, 10 mg/kg/day oral, 35 days, two individuals (not significant; p<0.02), 10 mg/kg/day) was 38% and 90%.

For `CCC(C)(C)C(=O)O[C@H]1C[C@@H](C)C=C2C=C[C@H](C)[C@H](CC[C@@H]3C[C@@H](O)CC(=O)O3)[C@H]21` [Simvastatin, simvastatin], the “increase in the bone formation rate in the proximal tibia” value (ovariectomized rats; 10 mg/kg/day oral) was 114% and the “increase in the bone formation rate in the proximal tibia” value (ovariectomized rats; 50 mg/kg/day oral) was 86%.
